Measurements reported in BindingDB's records for doi:10.1124/jpet.102.045674 (Pudue Pharma Discovery Research, 2003).

Experiments:
[1] = molecular target: Sodium-dependent dopamine transporter (Rattus norvegicus, UniProt P23977)
[2] = molecular target: Sodium channel protein type 1 subunit alpha (Rattus norvegicus, UniProt P04774)
[3] = molecular target: Androgen receptor (Rattus norvegicus) (UniProt P15207)
[4] = molecular target: Amine oxidase [flavin-containing] B (Rattus norvegicus, UniProt P19643)
D(1A) dopamine receptor = D(1A) dopamine receptor (Rattus norvegicus, UniProt P18901)
[5] = molecular target: Muscarinic acetylcholine receptor M2 (Rattus norvegicus, UniProt P10980)
Endothelin-1 receptor = Endothelin-1 receptor (Rattus norvegicus, UniProt P26684)
Thromboxane A2 receptor = Thromboxane A2 receptor (Rattus norvegicus, UniProt P34978)
[6] = molecular target: Sodium channel protein type 2 subunit alpha (Rattus norvegicus, UniProt P04775)
Oxytocin receptor = Oxytocin receptor (Rattus norvegicus, UniProt P70536)
Substance-K receptor = Substance-K receptor (Rattus norvegicus, UniProt P16610)
Histamine H2 receptor = Histamine H2 receptor (Rattus norvegicus, UniProt P25102)
[7] = molecular target: Platelet-activating factor receptor (Rattus norvegicus, UniProt P46002)
[8] = molecular target: Thyrotropin-releasing hormone receptor (Rattus norvegicus) (UniProt Q01717)
[9] = molecular target: Leukotriene B4 receptor 1 (Rattus norvegicus, UniProt Q9R0Q2)
[10] = molecular target: Glutamate decarboxylase 2 (Rattus norvegicus, UniProt Q05683)
[11] = molecular target: Choline O-acetyltransferase (Rattus norvegicus, UniProt P32738)
Hrh3 protein = Hrh3 protein (Rattus norvegicus, UniProt Q5PPG3)
[12] = molecular target: Beta-2 adrenergic receptor (Rattus norvegicus, UniProt P10608)
[13] = molecular target: Alpha-1A adrenergic receptor (Rattus norvegicus, UniProt P43140)
[14] = molecular target: Type-1 angiotensin II receptor A (Rattus norvegicus, UniProt P25095)
[15] = molecular target: Vasopressin V1a receptor (Rattus norvegicus) (UniProt P30560)
[16] = molecular target: Melatonin receptor type 1A (Rattus norvegicus, UniProt P49218)
[17] = molecular target: Alpha-2C adrenergic receptor (Rattus norvegicus, UniProt P22086)
[18] = molecular target: Glutamate receptor ionotropic, kainate 1 (Rattus norvegicus, UniProt P22756)
[19] = molecular target: Gamma-aminobutyric acid (GABA) B receptor 1 (Rattus norvegicus, UniProt Q6MFX8)
[20] = molecular target: Norepinephrine transporter (Rattus norvegicus, UniProt Q9JIA2)
[21] = molecular target: Corticotropin releasing factor receptor (Rattus norvegicus) (UniProt P35353)
[22] = molecular target: Type-2 angiotensin II receptor (Rattus norvegicus, UniProt P35351)
[23] = molecular target: Nitric oxide synthase, brain (Rattus norvegicus, UniProt P29476)
[24] = molecular target: Nicotinic acetylcholine receptor (Rattus leucopus, UniProt Q62594)
[25] = molecular target: Cysteinyl leukotriene receptor 1 (Rattus norvegicus, UniProt Q924T8)
[26] = molecular target: Glycine receptor subunit alpha-1 (Rattus norvegicus, UniProt P07727)
[27] = molecular target: Small conductance calcium-activated potassium channel protein 1 (Rattus norvegicus, UniProt P70606)
[28] = molecular target: ATP-sensitive inward rectifier potassium channel 1 (Rattus norvegicus, UniProt P35560)
B2 bradykinin receptor = B2 bradykinin receptor (Rattus norvegicus, UniProt P25023)
[29] = molecular target: Muscarinic acetylcholine receptor M1 (Rattus norvegicus, UniProt P08482)
[30] = molecular target: Gamma-aminobutyric acid receptor subunit alpha-1 (Rattus norvegicus, UniProt P62813)
Estrogen receptor = Estrogen receptor (Rattus norvegicus, UniProt P06211)
Substance-P receptor = Substance-P receptor (Rattus norvegicus, UniProt P14600)

Measured: Ki

Sequence of Sodium-dependent dopamine transporter (P23977 whole entry): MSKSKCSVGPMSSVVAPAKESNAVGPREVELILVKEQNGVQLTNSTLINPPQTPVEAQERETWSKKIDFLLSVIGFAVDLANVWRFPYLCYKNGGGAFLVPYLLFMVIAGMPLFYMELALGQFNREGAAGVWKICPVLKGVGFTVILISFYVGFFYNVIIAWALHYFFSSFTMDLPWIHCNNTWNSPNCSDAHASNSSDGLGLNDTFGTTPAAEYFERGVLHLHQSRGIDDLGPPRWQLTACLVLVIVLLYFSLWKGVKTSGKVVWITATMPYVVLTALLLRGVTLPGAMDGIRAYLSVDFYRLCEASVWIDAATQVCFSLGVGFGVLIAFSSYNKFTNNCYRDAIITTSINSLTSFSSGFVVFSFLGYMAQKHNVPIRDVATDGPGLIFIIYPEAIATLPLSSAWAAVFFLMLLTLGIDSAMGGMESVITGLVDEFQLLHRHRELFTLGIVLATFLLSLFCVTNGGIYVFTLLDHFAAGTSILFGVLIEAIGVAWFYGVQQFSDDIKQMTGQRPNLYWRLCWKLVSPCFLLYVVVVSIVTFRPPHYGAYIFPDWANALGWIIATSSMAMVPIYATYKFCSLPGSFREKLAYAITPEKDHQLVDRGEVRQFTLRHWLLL
Sequence of Histamine H2 receptor (P25102 whole entry): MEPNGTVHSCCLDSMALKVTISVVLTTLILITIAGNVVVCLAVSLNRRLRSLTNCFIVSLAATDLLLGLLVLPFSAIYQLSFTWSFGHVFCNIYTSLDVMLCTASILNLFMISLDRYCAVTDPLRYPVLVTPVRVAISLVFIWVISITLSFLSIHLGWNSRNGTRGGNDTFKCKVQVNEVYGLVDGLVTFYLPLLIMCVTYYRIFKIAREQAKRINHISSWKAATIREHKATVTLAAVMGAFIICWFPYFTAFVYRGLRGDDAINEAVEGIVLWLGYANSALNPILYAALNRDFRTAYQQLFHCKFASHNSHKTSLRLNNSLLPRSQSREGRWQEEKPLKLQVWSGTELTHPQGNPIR
Sequence of Platelet-activating factor receptor (P46002 whole entry): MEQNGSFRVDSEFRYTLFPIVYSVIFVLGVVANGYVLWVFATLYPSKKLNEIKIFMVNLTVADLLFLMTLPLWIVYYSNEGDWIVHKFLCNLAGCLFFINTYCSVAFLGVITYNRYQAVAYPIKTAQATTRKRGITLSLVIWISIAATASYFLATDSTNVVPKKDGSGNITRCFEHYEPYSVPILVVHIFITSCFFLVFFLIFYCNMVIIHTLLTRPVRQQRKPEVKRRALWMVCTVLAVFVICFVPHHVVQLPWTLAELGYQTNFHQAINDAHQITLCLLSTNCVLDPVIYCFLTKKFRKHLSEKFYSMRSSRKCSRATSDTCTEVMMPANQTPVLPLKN
Sequence of Type-2 angiotensin II receptor (P35351 whole entry): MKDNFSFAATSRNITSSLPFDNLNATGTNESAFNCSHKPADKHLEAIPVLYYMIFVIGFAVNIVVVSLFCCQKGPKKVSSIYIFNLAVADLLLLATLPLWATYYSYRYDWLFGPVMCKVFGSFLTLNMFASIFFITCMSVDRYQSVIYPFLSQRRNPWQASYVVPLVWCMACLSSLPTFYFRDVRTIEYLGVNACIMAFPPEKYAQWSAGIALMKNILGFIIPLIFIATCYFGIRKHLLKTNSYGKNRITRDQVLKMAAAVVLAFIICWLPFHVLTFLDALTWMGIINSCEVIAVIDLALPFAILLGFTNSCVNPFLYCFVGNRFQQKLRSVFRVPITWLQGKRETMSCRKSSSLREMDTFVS
Sequence of Muscarinic acetylcholine receptor M1 (P08482 whole entry): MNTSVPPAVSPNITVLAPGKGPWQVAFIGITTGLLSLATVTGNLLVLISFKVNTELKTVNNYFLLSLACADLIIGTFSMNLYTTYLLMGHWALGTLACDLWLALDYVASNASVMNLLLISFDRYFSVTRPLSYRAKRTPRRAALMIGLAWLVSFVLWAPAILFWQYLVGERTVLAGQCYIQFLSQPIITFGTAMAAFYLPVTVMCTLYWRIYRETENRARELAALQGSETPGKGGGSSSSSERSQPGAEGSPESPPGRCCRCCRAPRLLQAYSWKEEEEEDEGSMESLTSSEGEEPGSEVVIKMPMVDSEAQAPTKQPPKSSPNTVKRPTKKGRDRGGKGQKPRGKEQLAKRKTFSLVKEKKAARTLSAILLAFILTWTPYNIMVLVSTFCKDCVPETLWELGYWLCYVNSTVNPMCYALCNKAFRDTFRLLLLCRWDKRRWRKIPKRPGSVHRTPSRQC
Sequence of Thyrotropin-releasing hormone receptor (Rattus norvegicus) (Q01717 whole entry, looked up): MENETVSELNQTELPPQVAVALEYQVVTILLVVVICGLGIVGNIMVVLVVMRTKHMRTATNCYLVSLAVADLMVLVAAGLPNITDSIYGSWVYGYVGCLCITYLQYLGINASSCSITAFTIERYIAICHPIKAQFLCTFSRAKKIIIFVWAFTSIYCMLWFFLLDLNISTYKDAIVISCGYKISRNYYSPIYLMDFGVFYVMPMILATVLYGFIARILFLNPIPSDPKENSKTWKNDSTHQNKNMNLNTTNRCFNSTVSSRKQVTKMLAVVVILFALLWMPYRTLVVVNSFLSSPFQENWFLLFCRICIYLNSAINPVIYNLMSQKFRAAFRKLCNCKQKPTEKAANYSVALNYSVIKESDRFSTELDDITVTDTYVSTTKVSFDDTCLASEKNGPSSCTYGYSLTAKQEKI
Sequence of B2 bradykinin receptor (P25023 whole entry): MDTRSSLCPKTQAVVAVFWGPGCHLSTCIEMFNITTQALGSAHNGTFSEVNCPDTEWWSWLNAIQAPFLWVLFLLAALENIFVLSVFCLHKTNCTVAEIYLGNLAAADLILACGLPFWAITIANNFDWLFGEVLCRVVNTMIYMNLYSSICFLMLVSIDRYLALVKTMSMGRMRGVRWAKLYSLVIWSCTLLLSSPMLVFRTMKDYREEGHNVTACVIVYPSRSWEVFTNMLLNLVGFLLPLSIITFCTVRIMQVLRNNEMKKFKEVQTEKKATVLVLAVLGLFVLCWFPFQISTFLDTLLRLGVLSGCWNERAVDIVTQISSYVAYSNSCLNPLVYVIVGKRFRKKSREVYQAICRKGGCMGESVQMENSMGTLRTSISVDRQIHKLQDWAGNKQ
Sequence of Sodium channel protein type 2 subunit alpha (P04775 whole entry): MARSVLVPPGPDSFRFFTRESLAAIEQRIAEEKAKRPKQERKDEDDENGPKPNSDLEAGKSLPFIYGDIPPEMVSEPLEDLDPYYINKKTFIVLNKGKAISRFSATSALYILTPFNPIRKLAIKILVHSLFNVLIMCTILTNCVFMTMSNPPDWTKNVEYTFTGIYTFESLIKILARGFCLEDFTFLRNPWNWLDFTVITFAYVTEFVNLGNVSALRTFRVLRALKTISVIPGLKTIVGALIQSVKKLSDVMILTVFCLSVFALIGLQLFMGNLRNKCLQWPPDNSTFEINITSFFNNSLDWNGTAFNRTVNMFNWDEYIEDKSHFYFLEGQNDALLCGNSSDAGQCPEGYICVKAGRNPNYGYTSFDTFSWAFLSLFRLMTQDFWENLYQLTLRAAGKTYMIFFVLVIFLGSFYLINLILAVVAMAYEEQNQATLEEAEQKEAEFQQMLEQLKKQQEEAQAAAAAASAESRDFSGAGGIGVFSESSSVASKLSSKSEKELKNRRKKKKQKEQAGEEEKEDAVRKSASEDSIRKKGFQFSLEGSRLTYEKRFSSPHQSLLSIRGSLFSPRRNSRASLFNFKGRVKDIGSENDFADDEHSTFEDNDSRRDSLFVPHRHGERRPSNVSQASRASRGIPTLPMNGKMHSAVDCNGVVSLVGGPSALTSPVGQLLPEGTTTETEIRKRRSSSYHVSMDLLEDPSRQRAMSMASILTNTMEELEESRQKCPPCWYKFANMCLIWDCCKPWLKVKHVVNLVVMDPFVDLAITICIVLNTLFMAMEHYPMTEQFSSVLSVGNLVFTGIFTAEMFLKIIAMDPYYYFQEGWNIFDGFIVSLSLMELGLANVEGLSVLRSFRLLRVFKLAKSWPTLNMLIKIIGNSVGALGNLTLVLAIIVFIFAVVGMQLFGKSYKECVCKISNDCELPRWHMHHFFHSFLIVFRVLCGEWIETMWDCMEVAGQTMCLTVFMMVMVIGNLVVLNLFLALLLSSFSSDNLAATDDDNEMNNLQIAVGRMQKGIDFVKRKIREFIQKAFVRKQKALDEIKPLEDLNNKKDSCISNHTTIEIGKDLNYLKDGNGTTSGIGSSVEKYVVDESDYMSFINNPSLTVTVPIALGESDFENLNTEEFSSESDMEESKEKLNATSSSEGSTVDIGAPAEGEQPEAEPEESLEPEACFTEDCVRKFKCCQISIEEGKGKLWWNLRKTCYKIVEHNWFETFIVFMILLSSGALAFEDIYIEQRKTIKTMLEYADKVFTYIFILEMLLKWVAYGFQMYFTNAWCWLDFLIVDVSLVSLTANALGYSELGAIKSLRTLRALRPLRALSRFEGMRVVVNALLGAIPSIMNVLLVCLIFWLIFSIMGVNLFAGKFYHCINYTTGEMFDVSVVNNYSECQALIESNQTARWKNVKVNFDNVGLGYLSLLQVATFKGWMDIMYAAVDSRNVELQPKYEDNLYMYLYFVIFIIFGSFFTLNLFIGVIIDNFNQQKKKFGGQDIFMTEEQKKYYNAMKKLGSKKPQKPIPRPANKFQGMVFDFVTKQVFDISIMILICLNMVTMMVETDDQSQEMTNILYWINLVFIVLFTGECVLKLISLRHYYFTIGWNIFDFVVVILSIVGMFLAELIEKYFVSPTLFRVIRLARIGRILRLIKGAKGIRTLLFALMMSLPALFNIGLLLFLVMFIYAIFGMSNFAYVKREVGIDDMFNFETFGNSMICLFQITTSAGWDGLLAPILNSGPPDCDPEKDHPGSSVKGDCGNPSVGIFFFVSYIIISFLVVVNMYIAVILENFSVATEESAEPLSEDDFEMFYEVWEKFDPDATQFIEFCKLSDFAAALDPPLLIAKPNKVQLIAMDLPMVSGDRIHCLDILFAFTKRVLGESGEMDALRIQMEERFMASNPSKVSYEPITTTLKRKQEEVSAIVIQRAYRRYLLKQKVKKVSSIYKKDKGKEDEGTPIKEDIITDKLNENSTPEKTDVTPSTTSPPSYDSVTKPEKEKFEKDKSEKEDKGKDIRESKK
Sequence of Nicotinic acetylcholine receptor (Q62594 whole entry): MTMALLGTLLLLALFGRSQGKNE

CC(C)(C)c1ccc(NC(=O)N2CCN(c3ncccc3Cl)CC2)cc1 [BCTC]
> 10 µM: all assays above
